This passage reports IC50 results from patent publication US9512107B2, “Therapeutically active compositions and their methods of use” (Agios Pharmaceuticals, Inc., priority 2012, dated 2016).

One experiment deals with T1, IDH2 R172K (Homo sapiens, UniProt P48735, R172K).
T1 sequence (P48735 40-452 R172K): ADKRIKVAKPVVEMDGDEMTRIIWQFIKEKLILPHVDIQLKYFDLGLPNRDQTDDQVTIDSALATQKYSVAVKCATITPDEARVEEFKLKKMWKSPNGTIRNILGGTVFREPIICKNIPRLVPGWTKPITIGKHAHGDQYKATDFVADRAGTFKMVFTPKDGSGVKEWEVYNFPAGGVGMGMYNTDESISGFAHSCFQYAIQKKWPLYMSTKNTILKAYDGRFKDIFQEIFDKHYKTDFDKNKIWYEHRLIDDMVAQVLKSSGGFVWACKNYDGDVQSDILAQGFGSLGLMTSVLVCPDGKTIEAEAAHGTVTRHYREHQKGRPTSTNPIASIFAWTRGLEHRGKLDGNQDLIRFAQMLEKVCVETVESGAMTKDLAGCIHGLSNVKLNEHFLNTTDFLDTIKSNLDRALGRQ
In words: IDH2 R172K enzymatic assay (NADPH cofactor depletion, diaphorase/resazurin readout). Type of experiment: biochemical. To be noted: read-out: Enz R172K. A digest of the protocol:
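Compound was preincubated with IDH2 R172K for 1 h at room temperature, then the reaction was started with substrate mix containing 50 μM NADPH and 6.3 mM α-KG. After another 1 h at room temperature, stop mix with diaphorase and resazurin consumed the remaining NADPH, and resorufin fluorescence was read.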
(Alamar Blue is a resazurin reagent that responds to reducing activity.)

Experiment [1] has as its system U87MG pLVX-IDH2 R140Q-neo cells. Kind of experiment: U87MG pLVX-IDH2 R140Q-neo cell based assay, 2-HG in media by LC-MS at 48 hours. The note with it: Homo sapiens, U-87 MG. The method in brief: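 U87MG cells stably expressing IDH2 R140Q were seeded overnight, then exposed to compound at 0.2% final DMSO at 37 °C, 5% CO2. 2-HG in the medium was quantified by LC-MS at 48 h. Growth inhibition was read by CellTiter-Glo luminescence at 72 h.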

Another experiment addresses T2, IDH2 R140Q (Homo sapiens, UniProt P48735, R140Q).
T2 sequence (P48735 40-452 R140Q): T1 sequence (P48735 40-452 R172K) with R101Q, K133R
Kind of experiment: IDH2 R140Q enzymatic assay (cofactor depletion, similar format). The class given is biochemical. To be noted: read-out: Enz R140Q.

Changes are numbered by the printed parent chain.

Take `CC(C)Nc1nc(Nc2cc(F)cc(F)c2)nc(-c2cnc(N)nc2)n1` [Compound 649, 6-(2-aminopyrimidin-5-yl)-N2-(3,5-difluorophenyl)-N4-isopropyl-1,3,5-triazine-2,4-diamine]: the IC50 is 100 to 1000 nM at IDH2 R172K, 100 to 1000 nM in experiment [1] and less than 100 nM at IDH2 R140Q.
As for `FC(F)(F)CCNc1nc(Nc2ccncc2)nc(-c2ccccc2)n1` [Compound 263, 6-phenyl-N^2-(pyridin-4-yl)-N^4-(3,3,3-trifluoropropyl)-1,3,5-triazine-2,4-diamine], the IC50 on IDH2 R172K was 1000 to 10000 nM; in experiment [1] it was 100 to 1000 nM; at IDH2 R140Q, less than 100 nM.
On the same counts, the results for `OC1(CNc2nc(Nc3cc(F)cc(F)c3)nc(-c3cccc(C(F)(F)F)n3)n2)CC1` [Compound 541, 1-{[4-(3,5-Difluoro-phenylamino)-6-(6-trifluoromethyl-pyridin-2-yl)-[1,3,5]triazin-2-ylamino]-methyl}-cyclopropanol] are 100 to 1000 nM, less than 100 nM and 100 to 1000 nM.
On the same counts, the results for `CC(C)Nc1nc(Nc2ccnc(C(F)(F)F)c2)nc(-c2ccccc2)n1` [Compound 202, N^2-isopropyl-6-phenyl-N^4-(2-(trifluoromethyl)pyridin-4-yl)-1,3,5-triazine-2,4-diamine] are less than 100 nM, less than 100 nM and less than 100 nM.
With `CC(C)C(CO)Nc1nc(Nc2ccccc2)nc(-c2ccccc2)n1` (stereo not drawn) [Compound 242, 3-methyl-2-(4-phenyl-6-(phenylamino)-1,3,5-triazin-2-ylamino)butan-1-ol], the IC50 was in the range of 1000 to 10000 nM at IDH2 R172K, 100 to 1000 nM in experiment [1] and 100 to 1000 nM at IDH2 R140Q.
As for `CC(C)Nc1nc(Nc2cccc(S(C)(=O)=O)c2)nc(-c2cccc(C(F)(F)F)n2)n1` [Compound 358, N^2-isopropyl-N^4-(3-(methylsulfonyl)phenyl)-6-(6-(trifluoromethyl)pyridin-2-yl)-1,3,5-triazine-2,4-diamine], the IC50 at IDH2 R172K is 100 to 1000 nM; in experiment [1], less than 100 nM; at IDH2 R140Q, 100 to 1000 nM.
Regarding `c1ccc(Nc2nc(NCC3CC3)nc(-c3ccccc3)n2)cc1` [Compound 111], the IC50 (on IDH2 R172K; in experiment [1]; on IDH2 R140Q) was less than 100 nM throughout.
In the case of `CC(C)Nc1nc(Nc2cccc(S(C)(=O)=O)c2)nc(-c2nc(C(F)(F)F)ccc2F)n1` [Compound 484, 6-(3-fluoro-6-(trifluoromethyl)pyridin-2-yl)-N2-isopropyl-N4-(3-(methylsulfonyl)phenyl)-1,3,5-triazine-2,4-diamine], the IC50 on IDH2 R172K is 100 to 1000 nM; in experiment [1], less than 100 nM; on IDH2 R140Q it was 100 to 1000 nM.
Regarding `CC(F)(F)c1cccc(-c2nc(NCC3CC3)nc(Nc3ccnc(C(F)(F)F)c3)n2)n1` [Compound 595, N2-(cyclopropylmethyl)-6-(6-(1,1-difluoroethyl)pyridin-2-yl)-N4-(2-(trifluoromethyl)pyridin-4-yl)-1,3,5-triazine-2,4-diamine], the IC50 at IDH2 R172K was less than 100 nM; in experiment [1], less than 100 nM; on IDH2 R140Q, 100 to 1000 nM.
`CC(C)Nc1nc(Nc2ccnc(C(C)(C)O)c2)nc(-c2cccc(Cl)n2)n1` [Compound 514, 2-{4-[4-(6-Chloro-pyridin-2-yl)-6-isopropylamino-[1,3,5]triazin-2-ylamino]-pyridin-2-yl}-propan-2-ol]: the IC50 at IDH2 R172K is less than 100 nM; in experiment [1], less than 100 nM; at IDH2 R140Q it was 100 to 1000 nM.
For the molecule `CC(C)Nc1nc(Nc2ccnc(C(C)(C)C#N)c2)nc(-c2cccc(C(F)(F)F)n2)n1` [Compound 671, 2-{4-[4-Isopropylamino-6-(6-trifluoromethyl-pyridin-2-yl)-[1,3,5]triazin-2-ylamino]-pyridin-2-yl}-2-methyl-propionitrile], the IC50 was less than 100 nM on IDH2 R172K, less than 100 nM in experiment [1] and 100 to 1000 nM on IDH2 R140Q.
For `CC(C)Nc1nc(Nc2cccc(CC#N)c2)nc(-c2ccccc2)n1` [Compound 198, 2-(3-(4-(isopropylamino)-6-phenyl-1,3,5-triazin-2-ylamino)phenyl)acetonitrile], the IC50 on IDH2 R172K was 100 to 1000 nM; in experiment [1] it was less than 100 nM; on IDH2 R140Q it was less than 100 nM.
As for `c1ccc(Nc2nc(NCc3ccccn3)nc(-c3ccccc3)n2)cc1` [Compound 135], the IC50 was more than 10000 nM on IDH2 R172K, 1000 to 10000 nM in experiment [1] and 100 to 1000 nM on IDH2 R140Q.
With `Fc1cc(Nc2nc(NC3[C@H]4COC[C@@H]34)nc(-c3ccccc3F)n2)ccn1` (stereo partly drawn) [Compound 636, 6-(2-Fluoro-phenyl)-N-(2-fluoro-pyridin-4-yl)-N′-(3-oxa-bicyclo[3.1.6]hex-6-yl)-[1,3,5]triazine-2,4-diamine], the IC50 is 100 to 1000 nM at IDH2 R172K, less than 100 nM in experiment [1] and less than 100 nM on IDH2 R140Q.
For the molecule `CC(C)Nc1nc(Nc2cncc(C(F)(F)F)c2)nc(-c2cccc(N)n2)n1` [Compound 468, 6-(6-Amino-pyridin-2-yl)-N-isopropyl-N′-(5-trifluoromethyl-pyridin-3-yl)-[1,3,5]triazine-2,4-diamine], the IC50 was less than 100 nM on IDH2 R172K, less than 100 nM in experiment [1] and 100 to 1000 nM on IDH2 R140Q.
`CCNc1cc(Nc2nc(NC(C)C)nc(-c3ccccc3)n2)ccn1` [Compound 224, N^2-(2-(ethylamino)pyridin-4-yl)-N^4-isopropyl-6-phenyl-1,3,5-triazine-2,4-diamine]: the IC50 is 100 to 1000 nM at IDH2 R172K, 100 to 1000 nM in experiment [1] and less than 100 nM on IDH2 R140Q.
For the molecule `CC(C)Nc1nc(Cc2ccccc2)nc(Nc2ccccc2)n1` [Compound 103], the IC50 was in the range of 1000 to 10000 nM on IDH2 R172K, 1000 to 10000 nM in experiment [1] and 100 to 1000 nM at IDH2 R140Q.
For `CC(C)(C)Nc1nc(Nc2cc(Cl)cc(S(C)(=O)=O)c2)nc(-c2cccc(C(F)(F)F)n2)n1` [Compound 600, N2-(tert-butyl)-N4-(3-chloro-5-(methylsulfonyl)phenyl)-6-(6-(trifluoromethyl)pyridin-2-yl)-1,3,5-triazine-2,4-diamine], the results for the IC50 (at IDH2 R172K; in experiment [1]; on IDH2 R140Q) were less than 100 nM, less than 100 nM and 100 to 1000 nM, respectively.
For the molecule `Cc1ccccc1-c1nc(Nc2ccccc2)nc(NC(C)C)n1` [Compound 123], the results for the IC50 (at IDH2 R172K; in experiment [1]; on IDH2 R140Q) were 100 to 1000 nM, 100 to 1000 nM and less than 100 nM, respectively.
Turning to `COc1ccc(F)c(-c2nc(Nc3ccnc(C(F)(F)F)c3)nc(NC3COC3)n2)c1` [Compound 635, 6-(2-Fluoro-5-methoxy-phenyl)-N-oxetan-3-yl-N′-(2-trifluoromethyl-pyridin-4-yl)-[1,3,5]triazine-2,4-diamine], the IC50 (at IDH2 R172K; in experiment [1]; on IDH2 R140Q) was 100 to 1000 nM each time.
As for `OC1CCCC1Nc1nc(Nc2ccnc(C(F)(F)F)c2)nc(-c2cccc(C(F)(F)F)n2)n1` (stereo not drawn) [Compound 588, 2-((4-(6-(trifluoromethyl)pyridin-2-yl)-6-((2-(trifluoromethyl)pyridin-4-yl)amino)-1,3,5-triazin-2-yl)amino)cyclopentanol], the IC50 is 100 to 1000 nM on IDH2 R172K, less than 100 nM in experiment [1] and 100 to 1000 nM on IDH2 R140Q.
Take `CC(C)Nc1nc(Nc2ccccc2)nc(-c2ncccc2Cl)n1` [Compound 230, 6-(3-chloropyridin-2-yl)-N^2-isopropyl-N^4-phenyl-1,3,5-triazine-2,4-diamine]: the IC50 (at IDH2 R172K; in experiment [1]; on IDH2 R140Q) was 100 to 1000 nM each time.
